Source: patent US20250197377A1, “NOVEL PHARMACEUTICAL SALTS AND POLYMORPHIC FORMS OF AN ERBB AND BTK INHIBITOR” (DIZAL (JIANGSU) PHARMACEUTICAL CO., LTD., priority 2021, published 2025)
Values belong to the molecule of their own block, whether it stands above or below them.

Legend:
[1] = Form A and Form B inter-conversion study (competitive slurry, XRPD); type: physicochemical
Experimental: Competitive slurry experiments were conducted to evaluate the relative stability of Form A and Form B. Inter-conversion study was performed at room temperature and 50° C. using single and binary solvents listed in the Table 1 below. About 80 mg (100 mg for 50° C.) of Form A and Form B (1:1, w/w) was weighed into sample vials (8 mL) and then 3 mL (2 mL for 50° C.) of solvents were added to each vial. The obtained suspensions were kept stirring for 7 days at room temperature and 50° C., then filtered at specified time. The wet and dried solids were analyzed by XRPD (dried in vacuum oven at 45° C.).
Form B was dominant in tested solvent systems with water activity below 0.15 at room temperature (24˜27° C.). […] Pure Form A and Form B were stable during drying process (50° C., vacuum) for at least 2 days.

[2] = Solubility in bio-relevant media; type: physicochemical; settings: for solubility at 24 h: salts; for pH value: solubility sample of salt

XRPD results of slurry ([1]; 1% water/acetone, 24~27° C., 1 d, after dry): A + B
XRPD results of slurry ([1]; 1% water/acetone, 24~27° C., 1 d, before dry): A + B
XRPD results of slurry ([1]; 1% water/acetone, 24~27° C., 3 d, after dry): A + B
XRPD results of slurry ([1]; 1% water/acetone, 24~27° C., 3 d, before dry): A + B
XRPD results of slurry ([1]; 1% water/acetone, 24~27° C., 7 d, before dry): A + B(increased)
XRPD results of slurry ([1]; 30% water/acetone, 24~27° C., 1 d, after dry): A + B
XRPD results of slurry ([1]; 30% water/acetone, 24~27° C., 1 d, before dry): A + B
XRPD results of slurry ([1]; 30% water/acetone, 24~27° C., 7 d, before dry): A + B
XRPD results of slurry ([1]; 30% water/acetone, 50° C., 1 d, after dry): A + B
XRPD results of slurry ([1]; 30% water/acetone, 50° C., 1 d, before dry): A + B
XRPD results of slurry ([1]; Acetone (no water), 50° C., 1 d, before dry): A (minor) + B
XRPD results of slurry ([1]; Acetone(no water), 24~27° C., 1 d, after dry): A + B
XRPD results of slurry ([1]; Acetone(no water), 24~27° C., 1 d, before dry): A + B
XRPD results of slurry ([1]; Acetone(no water), 24~27° C., 3 d, after dry): A + B
XRPD results of slurry ([1]; Acetone(no water), 24~27° C., 3 d, before dry): A + B
XRPD results of slurry ([1]; Acetone(no water), 24~27° C., 7 d, before dry): A + B(increased)
XRPD results of slurry ([1]; EtOH/IPA (1/1), 24~27° C., 1 d, after dry): A + B
XRPD results of slurry ([1]; EtOH/IPA (1/1), 24~27° C., 1 d, before dry): A + B
XRPD results of slurry ([1]; EtOH/IPA (1/1), 24~27° C., 7 d, before dry): A + B(increased)
XRPD results of slurry ([1]; EtOH/IPA (7/2), 24~27° C., 1 d, after dry): A + B
XRPD results of slurry ([1]; EtOH/IPA (7/2), 24~27° C., 1 d, before dry): A + B
XRPD results of slurry ([1]; EtOH/IPA (7/2), 24~27° C., 7 d, before dry): A + B(increased)
XRPD results of slurry ([1]; EtOH/water (1/1), 24~27° C., 1 d, after dry): A + B
XRPD results of slurry ([1]; EtOH/water (1/1), 24~27° C., 1 d, before dry): A + B
XRPD results of slurry ([1]; EtOH/water (1/1), 24~27° C., 7 d, before dry): A + B
XRPD results of slurry ([1]; Water, 24~27° C., 1 d, after dry): A + B
XRPD results of slurry ([1]; Water, 24~27° C., 1 d, before dry): A + B
XRPD results of slurry ([1]; Water, 24~27° C., 3 d, after dry): A + B
XRPD results of slurry ([1]; Water, 24~27° C., 3 d, before dry): A + B
XRPD results of slurry ([1]; Water, 24~27° C., 7 d, before dry): A + B
XRPD results of slurry ([1]; Water, 50° C., 1 d, after dry): A + B
XRPD results of slurry ([1]; Water, 50° C., 1 d, before dry): A + B
XRPD results of slurry ([1]; Water, 50° C., 3 d, after dry): A + B
XRPD results of slurry ([1]; Water, 50° C., 3 d, before dry): A + B
XRPD results of slurry ([1]; Water, 50° C., 7 d, before dry): A + B
SMILES: C=CC(=O)Nc1cc(Nc2nccc(Nc3cc(Cl)c(F)cc3C(C)(C)O)n2)c(OC)cc1N1CC[C@@H](N(C)C)C1 [Form A and Form B (1:1, w/w), (R)-N-(5-((4-((5-chloro-4-fluoro-2-(2-hydroxypropan-2-yl)phenyl)amino)pyrimidin-2-yl)amino)-2-(3-(dimethylamino)pyrrolidin-1-yl)-4-methoxyphenyl)acrylamide]

solubility at 24 h ([2]; FaSSIF): > 10.1 mg/mL
pH value ([2]; FaSSIF): 5.22
solubility at 24 h ([2]; FeSSIF): > 9.75 mg/mL
pH value ([2]; FeSSIF): 4.94
solubility at 24 h ([2]; SGF, simulated gastric fluid): > 12.2 mg/mL
pH value ([2]; SGF): 3.98
SMILES: C=CC(=O)Nc1cc(Nc2nccc(Nc3cc(Cl)c(F)cc3C(C)(C)O)n2)c(OC)cc1N1CC[C@@H](N(C)C)C1.O=C(O)/C=C/C(=O)O [Fumaric acid salt, (R)—N-(5-((4-((5-chloro-4-fluoro-2-(2-hydroxypropan-2-yl)phenyl)amino)pyrimidin-2-yl)amino)-2-(3-(dimethylamino)pyrrolidin-1-yl)-4-methoxyphenyl)acrylamide fumarate]

solubility at 24 h ([2]; FaSSIF): 1.95 mg/mL
pH value ([2]; FaSSIF): 6.62
solubility at 24 h ([2]; FeSSIF): > 11.1 mg/mL
pH value ([2]; FeSSIF): 5.44
solubility at 24 h ([2]; SGF, simulated gastric fluid): 11.8 mg/mL
pH value ([2]; SGF): 5.65
SMILES: C=CC(=O)Nc1cc(Nc2nccc(Nc3cc(Cl)c(F)cc3C(C)(C)O)n2)c(OC)cc1N1CC[C@@H](N(C)C)C1.Cl [Hydrochloric acid salt, (R)—N-(5-((4-((5-chloro-4-fluoro-2-(2-hydroxypropan-2-yl)phenyl)amino)pyrimidin-2-yl)amino)-2-(3-(dimethylamino)pyrrolidin-1-yl)-4-methoxyphenyl)acrylamide Hydrochloride]
